Where “and” joins values, the source holds several entries; their conditions need not be identical. Equal values may be shown once.
Test system: heat hypersensitivity of λ-carrageenan-injected right hind paws of mice
Assay: λ-carrageenan-induced paw inflammation, heat hypersensitivity on hotplate (57° C.), time until first response
Type: in vivo
Details: for Response time at 3.5 h, avg: average of n=5 animals; for Response time at 3.5 h, avg / Response time at 3.5 h: 10 mg/kg ip 30 min before 1% λ-carrageenan, hotplate 57° C., 3.5 h after carrageenan; for Response time at 3.5 h: individual animal, 10 mg/kg; for average response time compared with pretreatment baseline response time: n=5 animals, 10 mg/kg ip, 3.5 h after λ-carrageenan
Description: Intra plantar injection of 1% […] may be used to induce local inflammation to the paws of test subject mice. In general, local inflammation is expressed as paw swelling and increased sensitivity to heat stimuli. Therefore, the effect of a test item on changes in heat hypersensitivity can be assessed. Using the protocol set forth, the therapeutic effect of the compounds of Formula XVIII and XXII were evaluated.
Animals were dosed with a test compound at time zero (control where given vehicle only) at 10 mg/kg ip (test item was dissolved in a 20% […] solution). After 30 minutes the animals were slightly anesthetized with isoflurane, and 0.1 ml of a 1% λ-carrageenan suspension in Distilled Water was injected into the plantar side of the right hind paws of the mice. After 3.5 hours after the λ-carrageenan administration, the animals were placed on a hotplate apparatus maintained at 57° C., and the time until the first response was recorded.

SMILES | Response time at 3.5 h, avg [s] | Response time at 3.5 h | average response time compared with pretreatment baseline response time
O=C(O[C@H]1[C@@H]2[C@@H]3C[C@@H](C[C@H]1N3Cc1ccc3c(c1)OCO3)CN2C(=O)c1ccc(F)cn1)C1CC1 (relative stereo) [Compound of Formula XVIII, (2R*,3R*,3aS*,6S*,7aS*)-1-(benzo[d][1,3]dioxol-5-ylmethyl)-4-(5-fluoropicolinoyl)octahydro-1H-2,6-methanopyrrolo[3,2-b]pyridin-3-yl cyclopropanecarboxylate] | 14.6 | 16 sec (2×) and 14 sec and 12 sec and 15 sec | exceeded the pretreatment baseline response time
COCC(=O)N1C[C@@H]2C[C@@H]3C1[C@@H](O)[C@H](C2)N3Cc1cccc(C(N)=O)c1 (relative stereo) [Compound of Formula XXII, 3-(((2S*,3S*,6R*,7aR*)-3-hydroxy-4-(2-methoxyacetyl)octahydro-1H-2,6-methanopyrrolo[3,2-b]pyridin-1-yl)methyl)benzamide] | 12.2 | 12 sec (2×) and 14 sec and 13 sec and 10 sec | exceeded the pretreatment baseline response time

Source: US10766898B2, “Therapeutic compound for pain and synthesis thereof” (priority 2015, dated 2020)
